biological target: T1, α4β7 integrin (Homo sapiens, UniProt P13612+P26010); assay: MAdCAM-1/α4β7 integrin binding inhibitory activity evaluation test (RPMI-8866 cells binding to MAdCAM-1/Fc); assay type: cell-based; conditions: recombinant mouse MAdCAM-1/Fc, no serum
T1 construct: a cell line RPMI-8866, which is known to express α4β7 integrin; endogenous in cells; host or cells: RPMI-8866 (human B cell line)
T1 sequence (P13612 34-1032): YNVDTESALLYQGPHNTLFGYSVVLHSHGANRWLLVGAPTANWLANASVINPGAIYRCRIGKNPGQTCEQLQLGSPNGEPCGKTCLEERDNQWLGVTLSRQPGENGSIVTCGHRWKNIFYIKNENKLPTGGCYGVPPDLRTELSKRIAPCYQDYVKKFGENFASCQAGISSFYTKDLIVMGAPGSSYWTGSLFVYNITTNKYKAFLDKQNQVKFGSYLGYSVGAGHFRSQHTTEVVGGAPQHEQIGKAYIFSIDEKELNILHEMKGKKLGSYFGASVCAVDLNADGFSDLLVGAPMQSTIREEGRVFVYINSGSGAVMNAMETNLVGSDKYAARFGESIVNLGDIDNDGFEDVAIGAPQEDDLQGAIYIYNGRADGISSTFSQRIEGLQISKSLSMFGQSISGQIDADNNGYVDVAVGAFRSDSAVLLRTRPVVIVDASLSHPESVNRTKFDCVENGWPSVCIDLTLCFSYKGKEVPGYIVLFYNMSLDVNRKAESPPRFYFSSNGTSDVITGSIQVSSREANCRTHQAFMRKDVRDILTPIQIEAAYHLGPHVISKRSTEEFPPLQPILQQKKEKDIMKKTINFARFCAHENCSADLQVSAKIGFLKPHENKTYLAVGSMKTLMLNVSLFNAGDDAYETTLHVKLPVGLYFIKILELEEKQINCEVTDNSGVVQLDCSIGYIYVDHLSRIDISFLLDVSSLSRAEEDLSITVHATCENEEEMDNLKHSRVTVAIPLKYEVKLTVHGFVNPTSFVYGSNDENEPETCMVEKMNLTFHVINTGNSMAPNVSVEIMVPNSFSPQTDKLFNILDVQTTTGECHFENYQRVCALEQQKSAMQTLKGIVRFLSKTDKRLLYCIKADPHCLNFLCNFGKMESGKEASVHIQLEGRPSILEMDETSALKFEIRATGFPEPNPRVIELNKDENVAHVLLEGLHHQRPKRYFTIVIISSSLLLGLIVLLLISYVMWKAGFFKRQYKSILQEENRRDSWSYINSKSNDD
T1 sequence (P26010 20-798): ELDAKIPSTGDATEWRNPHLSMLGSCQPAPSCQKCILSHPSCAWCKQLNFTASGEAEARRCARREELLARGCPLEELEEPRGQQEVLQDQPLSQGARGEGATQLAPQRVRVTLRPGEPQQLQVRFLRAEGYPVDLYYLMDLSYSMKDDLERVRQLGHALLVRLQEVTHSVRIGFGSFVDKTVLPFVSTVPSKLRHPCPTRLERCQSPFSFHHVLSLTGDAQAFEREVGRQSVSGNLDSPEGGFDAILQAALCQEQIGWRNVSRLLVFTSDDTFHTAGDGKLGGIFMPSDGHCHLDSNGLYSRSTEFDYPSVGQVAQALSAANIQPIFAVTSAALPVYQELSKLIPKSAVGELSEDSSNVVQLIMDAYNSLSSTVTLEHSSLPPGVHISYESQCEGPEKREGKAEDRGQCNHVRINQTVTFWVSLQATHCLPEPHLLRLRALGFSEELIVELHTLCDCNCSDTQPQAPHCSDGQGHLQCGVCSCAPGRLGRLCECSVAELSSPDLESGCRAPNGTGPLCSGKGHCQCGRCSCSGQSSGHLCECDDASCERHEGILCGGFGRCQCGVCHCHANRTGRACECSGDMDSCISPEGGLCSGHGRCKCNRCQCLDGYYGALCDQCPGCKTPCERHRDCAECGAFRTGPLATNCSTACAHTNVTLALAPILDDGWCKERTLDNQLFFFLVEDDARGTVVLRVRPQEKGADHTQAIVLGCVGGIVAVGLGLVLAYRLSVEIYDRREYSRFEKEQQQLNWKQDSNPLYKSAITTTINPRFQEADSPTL
Description: (2) MAdCAM-1/α4β7 Integrin Binding Inhibitory Activity Evaluation Test
Each test substance was measured in terms of an ability to inhibit the MAdCAM-1 binding of a human B cell line, namely, a cell line RPMI-8866, which is known to express α4β7 integrin.
A solution of recombinant mouse MAdCAM-1/Fc (R&D Systems, Inc.) (0.75 μg/mL) diluted with a buffer A (carbonate buffer, pH 9.6) was added in an amount of 50 μL/well to a 96-well microtiter plate, followed by incubation at 4° C. overnight. After the plate was washed with PBS once, 150 μL/well of Block Ace (Snow Brand Milk Products Co., Ltd.) was added, followed by incubation at room temperature for 2 hours. After removal, the plate was washed with PBS once.
Then, 100 μL of the RPMI-8866 cells (2×10^6 cells/mL) and 100 μL of the test substance at each of various concentrations diluted with a binding buffer (DMEM containing 40 mM HEPES, 0.2% BSA, and 4 mM MnCl2) were added on the plate coated with the MAdCAM-1/Fc (5×10^5 cells/well), followed by incubation at 30° C. for 15 to 60 minutes. After the cells were bound to the wells, the plate was washed with PBS to remove unbound cells. A buffer C (PBS containing 1.5% Triton X-100) in an amount 50 μL/well was added to the plate to lyse the bound RPMI-8866 cells. After 30 μL of a substrate buffer (Promega, CytoTox 96 Non-Radioactive Cytotoxicity Assay) was added to 30 μL of the cell lysate, a reaction was allowed to proceed at room temperature in the dark for 30 minutes. After 30 μL of a stop solution (Promega, CytoTox 96 Non-Radioactive Cytotoxicity Assay) was added to each, and then an absorbance at 490 nm was measured using a plate reader. The absorbance obtained here represents a detection result of an activity of lactate dehydrogenase (LDH) eluted in the supernatant of each well, that is, the absorbance is proportional to the number of RPMI-8866 cells bound to the MAdCAM-1 and thus remaining on the plate. The test was performed in duplicate. Provided that the absorbance of the well containing no test substance was 100%, a cell binding rate with the test substance at each of the various concentrations was figured out, and a concentration IC50 which brought about 50% binding inhibition was calculated.

SMILES	IC50 [pM]
Cc1cc(=O)n(-c2ccc(C[C@H](NC(=O)c3cc(F)c(NS(=O)(=O)c4ccc(NC(=O)C(C)(C)C)cc4)cc3F)C(=O)O)nc2)c(=O)n1C [Compound A72]	1800
Cc1cn(C)c(=O)n(-c2ccc(C[C@H](NC(=O)c3cc(F)c(NS(=O)(=O)c4ccc(NC(=O)C(C)(C)C)cc4)cc3F)C(=O)O)cn2)c1=O [Compound A54]	1600
Cc1c(C)n(C(C)C)c(=O)n(-c2ccc(C[C@H](NC(=O)c3cc(F)c(NS(=O)(=O)c4ccc(NC(=O)C(C)(C)C)cc4)cc3F)C(=O)O)cc2)c1=O [Compound A48]	2000
Cn1c(=O)n(-c2ccc(C[C@H](NC(=O)c3cc(F)c(NS(=O)(=O)c4ccc(NC(=O)C5(O)CC5)cc4)cc3F)C(=O)O)cc2)c(=O)c2ccncc21 [Compound A23]	1000
Cc1cn(C)c(=O)n(-c2ccc(C[C@H](NC(=O)c3cc(F)c(NS(=O)(=O)c4ccc(NC(=O)C(C)(C)C)s4)cc3F)C(=O)O)cn2)c1=O [Compound A73]	2200
CN1C(=O)N(c2ccc(S(=O)(=O)Nc3cc(F)c(C(=O)N[C@@H](Cc4ccc(-n5c(=O)c6ccncc6n(C)c5=O)nc4)C(=O)O)cc3F)cc2)C(=O)C1(C)C [Compound A38]	5200
CN1CCC(=O)N(c2ccc(C[C@H](NC(=O)c3cc(F)c(NS(=O)(=O)c4ccc(NC(=O)C(C)(C)C)cc4)cc3F)C(=O)O)cn2)C1=O [Compound A75, (2S)-2-[2,5-difluoro-4-[(4-pivalamidophenyl)sulfonamide]benzamido]-3-[6-(3-methyl-2,6-dioxotetrahydropyrimidin-1(2H)-yl)pyridin-3-yl]propanoic acid]	4000
Cc1cc(=O)n(-c2ccc(C[C@H](NC(=O)c3cc(F)c(NS(=O)(=O)c4ccc(NC(=O)C(C)(C)C)cc4)cc3F)C(=O)O)cc2)c(=O)n1C [Compound A46]	760
Cn1c(=O)n(-c2ccc(C[C@H](NC(=O)c3cc(F)c(NS(=O)(=O)c4ccc(NC(=O)C5(c6ccccc6)CC5)cc4)cc3F)C(=O)O)cn2)c(=O)c2ccncc21 [Compound A29]	950
Cc1c(C)n(C)c(=O)n(-c2ccc(C[C@H](NC(=O)c3cc(F)c(NS(=O)(=O)c4cccc(NC(=O)C(C)(C)C)c4)cc3F)C(=O)O)cn2)c1=O [Compound A50]	6400
Cc1cn(C)c(=O)n(-c2ccc(C[C@H](NC(=O)c3cc(F)c(NS(=O)(=O)c4ccc(NC(=O)C5CCCC5)cc4)cc3F)C(=O)O)cn2)c1=O [Compound A65]	3300
Cc1cn(C)c(=O)n(-c2ccc(C[C@H](NC(=O)c3cc(F)c(NS(=O)(=O)c4ccc5c(NC(=O)C(C)(C)C)c[nH]c5c4)cc3F)C(=O)O)cn2)c1=O [Compound A74]	7800
Cc1cn(C)c(=O)n(-c2ccc(C[C@H](NC(=O)c3cc(F)c(NS(=O)(=O)c4ccc(NC(=O)C(C)(C)C(F)(F)F)cc4)cc3F)C(=O)O)cn2)c1=O [Compound A58]	1300
CCC(CC)C(=O)Nc1ccc(S(=O)(=O)Nc2cc(F)c(C(=O)N[C@@H](Cc3ccc(-n4c(=O)c(C)c(C)n(C)c4=O)cc3)C(=O)O)cc2F)cc1 [Compound A4]	850
Cc1cn(C)c(=O)n(-c2ccc(C[C@H](NC(=O)c3cc(F)c(NS(=O)(=O)c4c[nH]c5cc(NC(=O)C(C)(C)C)ccc45)cc3F)C(=O)O)cn2)c1=O [Compound A77]	3600
Cn1c2c(c(=O)n(-c3ccc(C[C@H](NC(=O)c4cc(F)c(NS(=O)(=O)c5ccc(NC(=O)C(C)(C)C)cc5)cc4F)C(=O)O)cn3)c1=O)CCOC2 [Compound A40]	740
Cn1ccc(=O)n(-c2ccc(C[C@H](NC(=O)c3cc(F)c(NS(=O)(=O)c4ccc(NC(=O)C5CCCC5)cc4)cc3F)C(=O)O)cn2)c1=O [Compound A64]	5500
Cc1cn(C)c(=O)n(-c2ccc(C[C@H](NC(=O)c3cc(F)c(NS(=O)(=O)c4ccc(NC(=O)C(C)(C)C)cc4)cc3F)C(=O)O)nc2)c1=O [Compound A69]	1800

Compounds with a lower IC50, results first:

IC50 [pM]	SMILES
520	COC1(C(=O)Nc2ccc(S(=O)(=O)Nc3cc(F)c(C(=O)N[C@@H](Cc4ccc(-n5c(=O)c6ccncc6n(C)c5=O)cc4)C(=O)O)cc3F)cc2)CC1 [Compound A16]
450	Cn1c2c(c(=O)n(-c3ccc(C[C@H](NC(=O)c4cc(F)c(NS(=O)(=O)c5ccc(NC(=O)C(C)(C)C)cc5)cc4F)C(=O)O)cc3)c1=O)COCC2 [Compound A33]
360	Cn1c(=O)n(-c2ccc(C[C@H](NC(=O)c3cc(F)c(NS(=O)(=O)c4ccc(NC(=O)c5ccncc5)cc4)cc3F)C(=O)O)cc2)c(=O)c2ccncc21 [Compound A7]
570	Cc1c(C)n(C)c(=O)n(-c2ccc(C[C@H](NC(=O)c3cc(F)c(NS(=O)(=O)c4ccc(NC(=O)C5(c6ccccc6)CC5)cc4)cc3F)C(=O)O)cc2)c1=O [Compound A30]
550	COC1(C(=O)Nc2ccc(S(=O)(=O)Nc3cc(F)c(C(=O)N[C@@H](Cc4ccc(-n5c(=O)c(C)c(C)n(C)c5=O)cc4)C(=O)O)cc3F)cc2)CC1 [Compound A17]
360	Cn1c2c(c(=O)n(-c3ccc(C[C@H](NC(=O)c4cc(F)c(NS(=O)(=O)c5ccc(NC(=O)C(C)(C)C)cc5)cc4F)C(=O)O)cc3)c1=O)CCOC2 [Compound A27]
410	Cn1c(=O)n(-c2ccc(C[C@H](NC(=O)c3cc(F)c(NS(=O)(=O)c4ccc(NC(=O)C(C)(C)C)s4)cc3F)C(=O)O)cc2)c(=O)c2ccncc21 [Compound A9]
390	Cc1c(C)n(C)c(=O)n(-c2ccc(C[C@H](NC(=O)c3cc(F)c(NS(=O)(=O)c4ccc(NC(=O)C(C)(C)C)cn4)cc3F)C(=O)O)cc2)c1=O [Compound A19]
380	Cc1c(C)n(C)c(=O)n(-c2ccc(C[C@H](NC(=O)c3cc(F)c(NS(=O)(=O)c4ccc(NC(=O)C(C)(C)C)s4)cc3F)C(=O)O)cc2)c1=O [Compound A10]
230	Cn1c(=O)n(-c2ccc(C[C@H](NC(=O)c3cc(F)c(NS(=O)(=O)c4ccc(NC(=O)C(C)(C)C)cc4)cc3F)C(=O)O)cn2)c(=O)c2ccncc21 [Compound A26]

— patent US10562898B2, “Substituted benzenesulfonamides as inhibitors of alpha-4 beta-7 integrin activity” (EA PHARMA CO., LTD., priority 2016, dated 2020)
